Calls of active or inactive are those of the source.
Key:
[1] = Luminescence Cell-Based Dose Response HTS to Identify Inhibitors of 5'UTR Stem-Loop Driven Prion Protein mRNA Translation in H4 Neuroglioblastoma Cells. [Related pubchem assays: 1827 (Project Summary), 1813 (Primary HTS)]; assay type: functional
Streptococcus = test: Group A Streptococcus viability loss, dose response, counter-screen for streptokinase expression inhibitor project, luminescence, BacTiterGlo (AID 1915); assay type: functional, organism-based;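 also: potency for reduction of bacterial viability or growth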
Vero = test: cells; assay type: functional; conditions: Chlorocebus sabaeus
Fatty acid synthase = Fatty acid synthase (Homo sapiens, UniProt P49327); test: FAS thioesterase domain inhibitors, dose response, biochemical, kinetic fluorescence intensity (AID 624326); assay type: functional;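 also: rate of fluorescence rise from hydrolysis of a fluorogenic O-methyl fluorescein ester substrate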
Fatty acid synthase, sequence (P49327 whole entry, the tested form may be a part): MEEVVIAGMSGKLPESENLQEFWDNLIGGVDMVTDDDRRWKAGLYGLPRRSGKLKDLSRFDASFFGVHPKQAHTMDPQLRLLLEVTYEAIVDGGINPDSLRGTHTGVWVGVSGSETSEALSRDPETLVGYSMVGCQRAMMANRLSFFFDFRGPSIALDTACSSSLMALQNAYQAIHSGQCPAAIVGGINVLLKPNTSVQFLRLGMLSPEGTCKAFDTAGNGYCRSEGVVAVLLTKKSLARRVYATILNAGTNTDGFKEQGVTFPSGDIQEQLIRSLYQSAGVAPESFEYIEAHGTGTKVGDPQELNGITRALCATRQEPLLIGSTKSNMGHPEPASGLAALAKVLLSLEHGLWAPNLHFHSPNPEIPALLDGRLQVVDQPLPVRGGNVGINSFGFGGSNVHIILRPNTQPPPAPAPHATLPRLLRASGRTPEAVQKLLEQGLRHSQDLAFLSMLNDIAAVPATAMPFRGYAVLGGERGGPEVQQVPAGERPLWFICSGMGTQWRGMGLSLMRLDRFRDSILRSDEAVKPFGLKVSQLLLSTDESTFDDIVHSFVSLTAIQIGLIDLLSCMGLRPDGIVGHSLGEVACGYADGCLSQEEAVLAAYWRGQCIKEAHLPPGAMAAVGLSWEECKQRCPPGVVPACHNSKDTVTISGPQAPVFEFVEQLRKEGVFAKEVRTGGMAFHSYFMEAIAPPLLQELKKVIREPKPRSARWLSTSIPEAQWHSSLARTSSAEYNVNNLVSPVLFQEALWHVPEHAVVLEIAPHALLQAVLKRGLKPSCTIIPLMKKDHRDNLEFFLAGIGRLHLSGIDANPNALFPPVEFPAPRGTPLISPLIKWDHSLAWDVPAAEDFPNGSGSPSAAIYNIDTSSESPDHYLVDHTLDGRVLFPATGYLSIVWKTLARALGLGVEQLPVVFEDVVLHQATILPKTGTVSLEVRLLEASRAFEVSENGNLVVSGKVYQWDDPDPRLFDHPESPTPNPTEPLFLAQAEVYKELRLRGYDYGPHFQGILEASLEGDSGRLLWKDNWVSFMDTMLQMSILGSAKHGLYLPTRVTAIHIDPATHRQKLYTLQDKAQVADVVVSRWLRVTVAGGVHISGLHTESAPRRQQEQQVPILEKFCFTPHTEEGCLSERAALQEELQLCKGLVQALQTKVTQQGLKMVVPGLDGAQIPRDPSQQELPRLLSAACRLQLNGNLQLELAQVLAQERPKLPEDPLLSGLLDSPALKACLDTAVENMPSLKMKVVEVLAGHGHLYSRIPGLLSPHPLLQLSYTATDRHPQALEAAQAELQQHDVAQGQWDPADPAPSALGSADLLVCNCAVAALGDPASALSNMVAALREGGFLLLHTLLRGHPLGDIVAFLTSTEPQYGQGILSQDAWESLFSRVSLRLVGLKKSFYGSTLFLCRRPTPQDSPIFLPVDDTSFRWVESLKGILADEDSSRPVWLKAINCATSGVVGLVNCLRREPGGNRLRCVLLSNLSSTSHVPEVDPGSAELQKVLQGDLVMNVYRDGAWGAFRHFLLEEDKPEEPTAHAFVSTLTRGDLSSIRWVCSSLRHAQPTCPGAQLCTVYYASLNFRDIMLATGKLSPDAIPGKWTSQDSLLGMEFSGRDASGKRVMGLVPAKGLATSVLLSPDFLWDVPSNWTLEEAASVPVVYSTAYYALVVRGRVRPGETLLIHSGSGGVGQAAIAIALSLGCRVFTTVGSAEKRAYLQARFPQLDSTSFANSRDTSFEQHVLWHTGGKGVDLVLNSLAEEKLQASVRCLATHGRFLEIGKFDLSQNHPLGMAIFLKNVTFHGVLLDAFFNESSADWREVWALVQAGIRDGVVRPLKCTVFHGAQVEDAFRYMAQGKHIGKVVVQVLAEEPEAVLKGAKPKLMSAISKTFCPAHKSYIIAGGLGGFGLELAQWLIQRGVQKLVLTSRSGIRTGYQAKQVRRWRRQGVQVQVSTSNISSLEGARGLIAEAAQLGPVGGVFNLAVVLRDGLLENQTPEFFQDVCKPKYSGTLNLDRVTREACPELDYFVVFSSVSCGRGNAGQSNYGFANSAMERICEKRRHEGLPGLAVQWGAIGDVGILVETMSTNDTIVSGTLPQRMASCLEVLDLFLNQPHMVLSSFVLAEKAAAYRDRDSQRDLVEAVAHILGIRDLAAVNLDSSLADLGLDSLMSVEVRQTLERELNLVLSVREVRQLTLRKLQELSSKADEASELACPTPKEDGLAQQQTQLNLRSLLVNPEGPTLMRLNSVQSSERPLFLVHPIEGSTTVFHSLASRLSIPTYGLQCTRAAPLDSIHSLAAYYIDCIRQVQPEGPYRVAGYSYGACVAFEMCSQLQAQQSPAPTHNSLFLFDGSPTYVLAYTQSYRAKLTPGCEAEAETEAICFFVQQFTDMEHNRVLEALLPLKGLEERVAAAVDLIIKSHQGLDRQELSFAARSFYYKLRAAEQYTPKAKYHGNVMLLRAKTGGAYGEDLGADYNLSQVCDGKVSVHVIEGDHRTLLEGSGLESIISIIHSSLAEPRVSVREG

[2] = biological target: T1, Alkaline phosphatase, tissue-nonspecific isozyme (Homo sapiens, UniProt P05186); test: TNAP enzyme activators, dose response, selectivity assay for mouse IAP activator project, biochemical, TNAP isozyme, mouse IAP uHTS hits (AID 488880); assay type: functional
T1 sequence (P05186 whole entry): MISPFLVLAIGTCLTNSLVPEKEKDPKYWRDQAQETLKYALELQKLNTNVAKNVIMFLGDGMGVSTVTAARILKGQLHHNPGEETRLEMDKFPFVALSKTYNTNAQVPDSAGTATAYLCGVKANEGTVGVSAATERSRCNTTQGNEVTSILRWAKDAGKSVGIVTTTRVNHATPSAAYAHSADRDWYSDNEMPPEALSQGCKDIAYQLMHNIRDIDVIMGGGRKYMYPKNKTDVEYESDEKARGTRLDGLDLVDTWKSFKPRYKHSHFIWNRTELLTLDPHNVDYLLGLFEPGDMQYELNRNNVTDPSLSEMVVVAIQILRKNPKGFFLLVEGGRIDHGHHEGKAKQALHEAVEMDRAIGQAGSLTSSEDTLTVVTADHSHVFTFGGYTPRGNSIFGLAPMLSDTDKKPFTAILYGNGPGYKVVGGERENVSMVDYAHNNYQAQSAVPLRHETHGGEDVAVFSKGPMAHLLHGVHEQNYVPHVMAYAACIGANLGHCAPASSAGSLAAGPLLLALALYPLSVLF

[3] = biological target: T2, Histone-lysine N-methyltransferase NSD2 (Homo sapiens, UniProt O96028); assay type: biochemical
T2 sequence (O96028 whole entry): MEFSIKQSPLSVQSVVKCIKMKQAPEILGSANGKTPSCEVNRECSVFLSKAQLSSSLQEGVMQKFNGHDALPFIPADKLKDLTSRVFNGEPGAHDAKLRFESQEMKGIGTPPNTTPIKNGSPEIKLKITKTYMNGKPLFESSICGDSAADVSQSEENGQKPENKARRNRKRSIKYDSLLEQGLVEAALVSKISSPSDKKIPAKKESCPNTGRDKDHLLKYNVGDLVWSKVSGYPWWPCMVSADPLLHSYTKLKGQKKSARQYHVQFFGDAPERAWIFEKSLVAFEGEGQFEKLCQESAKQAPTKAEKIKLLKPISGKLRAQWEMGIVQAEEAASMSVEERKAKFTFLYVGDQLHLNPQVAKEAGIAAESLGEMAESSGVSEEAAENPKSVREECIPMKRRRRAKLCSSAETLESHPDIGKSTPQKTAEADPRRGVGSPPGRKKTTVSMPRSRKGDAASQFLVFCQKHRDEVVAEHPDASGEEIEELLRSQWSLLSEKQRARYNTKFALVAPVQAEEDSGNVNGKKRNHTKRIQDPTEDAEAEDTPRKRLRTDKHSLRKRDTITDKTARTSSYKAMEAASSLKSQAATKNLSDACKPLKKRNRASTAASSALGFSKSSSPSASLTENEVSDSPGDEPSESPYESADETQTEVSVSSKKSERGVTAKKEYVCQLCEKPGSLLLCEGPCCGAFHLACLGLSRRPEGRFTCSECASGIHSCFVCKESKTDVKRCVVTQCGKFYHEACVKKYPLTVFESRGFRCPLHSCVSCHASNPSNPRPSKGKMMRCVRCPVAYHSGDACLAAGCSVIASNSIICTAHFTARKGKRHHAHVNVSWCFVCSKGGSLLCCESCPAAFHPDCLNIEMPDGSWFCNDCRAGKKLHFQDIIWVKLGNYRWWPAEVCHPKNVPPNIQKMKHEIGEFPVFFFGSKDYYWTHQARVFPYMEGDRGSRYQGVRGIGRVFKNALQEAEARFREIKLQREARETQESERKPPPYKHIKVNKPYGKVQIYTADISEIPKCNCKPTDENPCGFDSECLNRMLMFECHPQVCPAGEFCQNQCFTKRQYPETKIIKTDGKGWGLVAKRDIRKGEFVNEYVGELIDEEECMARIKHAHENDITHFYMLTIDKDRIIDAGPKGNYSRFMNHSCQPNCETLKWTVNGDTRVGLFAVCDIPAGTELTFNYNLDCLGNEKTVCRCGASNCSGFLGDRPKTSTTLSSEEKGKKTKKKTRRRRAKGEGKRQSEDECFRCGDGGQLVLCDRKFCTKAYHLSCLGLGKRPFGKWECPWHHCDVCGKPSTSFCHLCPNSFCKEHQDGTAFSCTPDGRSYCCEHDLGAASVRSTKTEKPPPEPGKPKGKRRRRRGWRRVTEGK

[4] = biological target: RNA-editing ligase 1, mitochondrial (Trypanosoma brucei brucei, UniProt P86926); test: TbREL1 ligase inhibitors, dose response, biochemical, fluorescence, Trypanosoma brucei (AID 1117295); assay type: functional
RNA-editing ligase 1, mitochondrial, sequence (P86926 whole entry): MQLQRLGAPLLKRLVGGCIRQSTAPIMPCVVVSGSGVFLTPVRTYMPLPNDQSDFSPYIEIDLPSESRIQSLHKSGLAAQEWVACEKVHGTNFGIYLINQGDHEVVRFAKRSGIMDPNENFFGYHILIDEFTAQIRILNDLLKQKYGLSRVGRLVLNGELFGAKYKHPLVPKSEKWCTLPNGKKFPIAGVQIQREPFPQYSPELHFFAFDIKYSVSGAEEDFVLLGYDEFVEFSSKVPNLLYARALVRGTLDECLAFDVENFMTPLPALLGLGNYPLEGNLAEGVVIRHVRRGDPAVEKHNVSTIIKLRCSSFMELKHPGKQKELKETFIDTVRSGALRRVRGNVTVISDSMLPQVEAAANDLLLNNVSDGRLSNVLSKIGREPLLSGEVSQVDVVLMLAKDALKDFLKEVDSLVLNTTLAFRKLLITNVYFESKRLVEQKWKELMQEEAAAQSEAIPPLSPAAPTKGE

[5] = biological target: Cell division cycle 7-related protein kinase (Homo sapiens, UniProt O00311); assay type: functional;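 also: value obtained from a kinome-wide kinase panel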
Cell division cycle 7-related protein kinase, sequence (O00311 whole entry, canonical isoform): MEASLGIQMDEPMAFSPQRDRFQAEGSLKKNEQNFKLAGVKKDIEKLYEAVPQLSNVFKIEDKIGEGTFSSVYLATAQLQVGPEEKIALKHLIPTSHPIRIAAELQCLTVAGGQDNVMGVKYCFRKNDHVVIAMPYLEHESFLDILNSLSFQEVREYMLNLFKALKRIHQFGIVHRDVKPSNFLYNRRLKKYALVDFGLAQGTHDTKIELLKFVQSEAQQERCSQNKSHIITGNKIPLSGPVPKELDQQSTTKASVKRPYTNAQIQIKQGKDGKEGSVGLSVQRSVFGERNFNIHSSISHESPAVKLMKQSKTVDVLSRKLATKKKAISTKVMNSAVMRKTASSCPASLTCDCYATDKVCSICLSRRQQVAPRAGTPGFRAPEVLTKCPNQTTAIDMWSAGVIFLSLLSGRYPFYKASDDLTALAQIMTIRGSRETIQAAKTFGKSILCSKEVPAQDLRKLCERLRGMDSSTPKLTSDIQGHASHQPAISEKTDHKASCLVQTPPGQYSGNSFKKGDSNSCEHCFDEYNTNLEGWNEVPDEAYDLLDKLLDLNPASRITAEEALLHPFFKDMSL

[6] = biological target: Casein kinase I isoform alpha (Homo sapiens, UniProt P48729); assay type: functional
[7] = biological target: Tyrosine-protein kinase Lyn (Homo sapiens, UniProt P07948); assay type: functional;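 also: lyn as one member of a kinase panel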
[8] = biological target: Tyrosine-protein kinase Blk (Homo sapiens, UniProt P51451); assay type: functional;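 also: obtained as one member of a kinome-wide kinase assay panel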
[9] = biological target: Receptor-type tyrosine-protein kinase FLT3 (Homo sapiens, UniProt P36888); assay type: functional;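 also: FLT3 was tested as one member of a kinome-wide kinase panel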
[10] = biological target: Insulin-like growth factor 1 receptor (Homo sapiens, UniProt P08069); test: Navigating the Kinome. Panel member name: IGF1R; assay type: functional
[11] = biological target: Vascular endothelial growth factor receptor 3 (Homo sapiens, UniProt P35916); assay type: functional;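 also: value from a kinome-wide profiling panel, with FLT4 as the panel member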
Vascular endothelial growth factor receptor 3, sequence (P35916 whole entry): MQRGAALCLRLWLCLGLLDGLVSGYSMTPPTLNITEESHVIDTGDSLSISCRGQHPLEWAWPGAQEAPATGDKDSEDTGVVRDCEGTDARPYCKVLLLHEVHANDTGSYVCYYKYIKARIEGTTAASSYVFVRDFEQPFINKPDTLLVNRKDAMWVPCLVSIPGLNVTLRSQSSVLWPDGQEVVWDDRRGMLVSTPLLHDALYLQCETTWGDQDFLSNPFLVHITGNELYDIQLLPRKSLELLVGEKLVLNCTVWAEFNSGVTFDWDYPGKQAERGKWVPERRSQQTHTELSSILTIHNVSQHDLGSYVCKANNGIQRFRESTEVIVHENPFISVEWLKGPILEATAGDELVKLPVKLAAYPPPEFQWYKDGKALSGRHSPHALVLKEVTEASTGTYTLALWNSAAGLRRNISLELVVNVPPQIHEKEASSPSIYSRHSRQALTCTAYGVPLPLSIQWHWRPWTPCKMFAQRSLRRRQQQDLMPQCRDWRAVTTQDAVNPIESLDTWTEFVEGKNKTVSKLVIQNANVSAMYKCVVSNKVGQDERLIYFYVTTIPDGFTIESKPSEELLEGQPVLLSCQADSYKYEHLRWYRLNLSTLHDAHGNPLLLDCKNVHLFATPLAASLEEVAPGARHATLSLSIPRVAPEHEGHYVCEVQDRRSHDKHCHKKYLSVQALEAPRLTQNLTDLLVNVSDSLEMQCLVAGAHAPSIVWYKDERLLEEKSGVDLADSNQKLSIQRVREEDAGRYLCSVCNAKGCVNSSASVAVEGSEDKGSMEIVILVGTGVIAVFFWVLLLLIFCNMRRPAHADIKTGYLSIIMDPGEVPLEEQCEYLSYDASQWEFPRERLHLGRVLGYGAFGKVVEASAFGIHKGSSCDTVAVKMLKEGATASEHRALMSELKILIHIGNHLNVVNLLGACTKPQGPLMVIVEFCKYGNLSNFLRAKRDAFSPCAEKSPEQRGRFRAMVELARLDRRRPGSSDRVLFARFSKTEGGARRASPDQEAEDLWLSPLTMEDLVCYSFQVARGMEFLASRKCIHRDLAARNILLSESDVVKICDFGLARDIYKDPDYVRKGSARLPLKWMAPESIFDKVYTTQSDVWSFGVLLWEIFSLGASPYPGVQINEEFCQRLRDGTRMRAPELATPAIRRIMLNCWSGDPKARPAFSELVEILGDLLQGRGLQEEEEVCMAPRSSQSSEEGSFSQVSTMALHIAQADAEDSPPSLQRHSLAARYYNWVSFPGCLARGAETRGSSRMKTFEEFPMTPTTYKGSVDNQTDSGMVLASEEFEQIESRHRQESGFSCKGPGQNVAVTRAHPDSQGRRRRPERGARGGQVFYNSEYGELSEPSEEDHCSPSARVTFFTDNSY

[12] = biological target: Tyrosine-protein kinase Fyn (Homo sapiens, UniProt P06241); assay type: functional
[13] = biological target: Homeodomain-interacting protein kinase 4 (Homo sapiens, UniProt Q8NE63); assay type: functional
[14] = biological target: Serine/threonine-protein kinase MRCK alpha (Homo sapiens, UniProt Q5VT25); assay type: functional
Nonstructural protein 1 = Nonstructural protein 1 (Influenza A virus, UniProt Q194T2); assay type: functional, Influenza A virus (A/California/07/2009(H1N1))

Compound: CC(=O)N(C1=C(Cl)C(=O)c2ccccc2C1=O)C1CCCCC1
- EC50 [1]: 20.5 µM (active)
- EC50 (Streptococcus): > 150 µM (not active)
- CC50 (Vero): 13.3 µM (active)
- IC50 (Fatty acid synthase): 4.54 µM (active)

Compound: Oc1ccc(-c2cn3c(n2)SCC3)cc1O
- EC50 [2]: 70.9 µM (active)
- AC50 [3]: 2.95 µM (active)
- IC50 [4]: > 96.6 µM (inactive)

Compound: O=C1Nc2ccc3ncsc3c2C1=CNc1ccc(S(=O)(=O)Nc2ccccn2)cc1
- Ki [5]: 0.126 µM (active)
- Ki [6]: 0.794 µM (active)
- Ki [7]: 0.398 µM (active)
- Ki [8]: 0.158 µM (active)
- Ki [9]: 0.00316 µM (active)
- Ki [10]: > 2 µM (inactive)
- Ki [11]: 0.00316 µM (active)
- Ki [12]: 0.2 µM (active)
- Ki [13]: 2 µM (active)
- Ki [14]: > 10 µM (inactive)

Compound: Cc1ccc(NC2=C/C(=N\S(=O)(=O)c3cccs3)c3ccccc3C2=O)c(C)c1
- EC50 [1]: 8.59 µM (inconclusive)
- EC50 (Streptococcus): 3.08 µM (active)
- IC50 (Nonstructural protein 1): 6.48 µM (active)

Compound: COc1ccc(/C=N/NC(=O)c2nn(-c3ccccc3)c(=O)c3c(N)scc23)cc1
- AC50 [3]: > 20 µM (inactive)
